Experimental data taken from patent publication US20250177566A1, “USE OF CHEMICAL EPIGENETIC MODIFIERS TO MODULATE GENE EXPRESSION” (The University of North Carolina at Chapel Hill, priority 2022, published 2025).
Like-named read-outs stand apart in the source and are kept apart here.

Experiments:
[1] = system: TRE3G-GFP reporter gene; details: WT FKBP (MS2-FKBPx2), 48 hrs
Description: HCT116 cells were transfected with TRE3G-GFP, dCas9, MS2-FKPB*x2, and TRE3G gRNA or NT gRNA. After 48 hrs of 10 nM SLF*-CEMa treatment, flow cytometry was performed and mean fluorescent value was collected. […] TRE3G-GFP, dCas9, MS2-FKBP*2, TRE3G gRNA or NT gRNA were transfected into HCT116 cells. The media was changed to media with 5 nM CEM207 together with 0 nM, 50 nM, 500 nM or 5000 nM of AP1867, respectively. After 48 hrs chemical exposure, flow cytometry was performed and the mean fluorescent value was measured in each group of cells. […] FIGS. 5D and 5E are dose curves of CEMa molecules activating the GFP reporter gene in HCT116 cells using WT FKBP and dCas9 as DNA binding module. HCT116 cells were transfected with dCas9, MS2-FKBPx2, TRE3G-GFP constructs, along with TRE3G gRNA or NT gRNA. Cells were treated with different concentrations of CEMa molecules for 48 hrs before flow cytometry was conducted. […] Error bars represent the standard deviation.
To better understand the activity of SLF*-CEMa in the WT FKBP-based GFP reporter assay, a similar dose-response assay was conducted in HCT116 cells transfected with dCas9 and MS2-FKBPx2 (FIGS. 1D and 1E).
Flow cytometry. All flow cytometry experiments were performed with Attune Nxt as previously described. […] Significance was determined by Student's t-test.

[2] = system: CXCR4; assay: CXCR4 mRNA activation in HCT116 stably expressing dCas9 and MS2-FKBPx2 (WT-FKBP), qRT-PCR; assay type: cell-based, human; details: FIG. 6, WT FKBP system, 48 hrs
[3] = system: CXCR4; assay: CXCR4 mRNA activation in HCT116 stably expressing dCas9 and MS2-FKBP*x2, qRT-PCR; assay type: cell-based, human
Procedure, shortened: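 HCT116 cells stably expressing dCas9 and MS2-FKBP*x2 with CXCR4 gRNA were treated with CEMs (screen at 5 nM; 1–50 nM range). CXCR4 mRNA measured by one-step qRT-PCR after 48 h, or at 12–96 h in time course. Reversibility tested by washout after 24 h, optionally with 20 μM AP1867.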

[4] = system: TRE3G-GFP reporter gene; assay: TRE3G-GFP reporter gene activation in HCT116, dCas9 + MS2-FKBP*x2 (F36V) system, flow cytometry; assay type: cell-based, human; parameters: fold change, GFP: reference not given here; details: for fold change, GFP: FIG. 5C, NT gRNA, 48 hrs
[5] = system: AAV transgene expression (firefly luciferase); assay: AAV regulation with first generation CEM, dual luciferase assay, HEK293T Renilla; assay type: cell-based, human; details: FIG. 12, 50, 200, 500, 1000 nM
Description: It was investigated whether rAAV transgene expression can be epigenetically controlled. Rapid screening of CEM technology can be performed with dual liucierase assays. (FIG. 10). Briefly, a cell line can be stably transduced with Ef1a-Renilla, enabling normalization to cell number. The cells are then either infected with AAV or tranfected with plasmid and dosed with a chemical epigenetic modifier. Luminescence can then be measured with the Dual Lucieferase Reporter, commercially available from Promega. This approach is described in more detail in the methods section of the example. Gene activation can be described as normalized luciferase or fold change. A measure of total gene expression can be calculated by
Preliminary regulation of AAV with first generation CEMs is depicted in FIG. 11A. The prototype system is autogenous, saving casssette space. (FIG. 11B). […] Preliminary regulation of AAV with first generation CEMs in HEK293T Renilla cells using the cassette in FIG. 11B results are shown in FIG. 13, with multiplicity of infection (MOI)=number of viral genomes/cell.

In the case of `COc1ccc2c(c1)C(c1ccc(Cl)cc1)=N[C@@H](CC(=O)NCc1cn(CCOCCOCCOCCNC(=O)CCSCCC[C@@H]3/C=C(\C)C[C@H](C)C[C@H](OC)[C@H]4O[C@@](O)(C(=O)C(=O)N5CCCC[C@H]5C(=O)O[C@H](/C(C)=C/[C@@H]5CC[C@@H](O)[C@H](OC)C5)[C@H](C)[C@@H](O)CC3=O)[C@H](C)C[C@@H]4OC)nn1)c1nnc(C)n1-2` [CEM87, reference compound], the “fold change, GFP (Treated vs Non-Treated)” value ([1]; FIG. 5D, 10 nM) is reported as 22.5 fold, the “fold change, GFP (Treated vs Non-Treated)” value ([1]; FIG. 5D, 25 nM) is reported as 23.1 fold and the “fold change, GFP (Treated vs Non-Treated)” value ([1]; FIG. 5D, 50 nM) is reported as 22.1 fold. The “fold change, GFP (Treated vs Non-Treated)” value ([1]; FIG. 5D, 100 nM) was 22.0 fold, the “fold change, GFP (Treated vs Non-Treated)” value ([1]; FIG. 5D, 200 nM) was 18.7 fold and the “fold change, GFP (Treated vs Non-Treated)” value ([1]; FIG. 5D, 400 nM) was 18.3 fold. The “fold change, GFP (Treated vs Non-Treated)” value ([1]; FIG. 5E, 10 nM) was 1.0 fold, the “fold change, GFP (Treated vs Non-Treated)” value ([1]; FIG. 5E, 25 nM) was 1.1 fold and the “fold change, GFP (Treated vs Non-Treated)” value ([1]; FIG. 5E, 50 nM) was 1.1 fold. For the same compound, the “fold change, GFP (Treated vs Non-Treated)” value ([1]; FIG. 5E, 100 nM) was 1.2 fold, the “fold change, GFP (Treated vs Non-Treated)” value ([1]; FIG. 5E, 200 nM) was 1.1 fold and the “fold change, GFP (Treated vs Non-Treated)” value ([1]; FIG. 5E, 400 nM) was 1.2 fold. The “fold change, CXCR4 mRNA (CXCR4 gRNA vs NT gRNA)” value ([2]; 25 nM) was 21.5 fold, the “fold change, CXCR4 mRNA (CXCR4 gRNA vs NT gRNA)” value ([2]; 50 nM) was 16.5 fold and the “fold change, CXCR4 mRNA (CXCR4 gRNA vs NT gRNA)” value ([2]; 200 nM) was 19.0 fold. The “fold change, CXCR4 mRNA (Treated vs Non-Treated)” value ([3]; FIG. 2C, 5 nM, 48 hrs) was 1.5 fold, the “fold change, CXCR4 mRNA (CEM Treated vs Non-Treated)” value ([3]; FIG. 2D, CXCR4 gRNA, 1 nM, 48 hrs) was 1.16 fold and the “fold change, CXCR4 mRNA (CEM Treated vs Non-Treated)” value ([3]; FIG. 2D, CXCR4 gRNA, 5 nM, 48 hrs) was 1.03 fold. The “fold change, CXCR4 mRNA (CEM Treated vs Non-Treated)” value ([3]; FIG. 2D, CXCR4 gRNA, 25 nM, 48 hrs) was 1.19 fold, the “fold change, CXCR4 mRNA (CEM Treated vs Non-Treated)” value ([3]; FIG. 2D, CXCR4 gRNA, 50 nM, 48 hrs) was 1.53 fold and the “fold change, CXCR4 mRNA (CEM Treated vs Non-Treated)” value ([3]; FIG. 2D, NT gRNA, 1 nM, 48 hrs) was 0.85 fold. For the same compound, the “fold change, CXCR4 mRNA (CEM Treated vs Non-Treated)” value ([3]; FIG. 2D, NT gRNA, 5 nM, 48 hrs) was 0.81 fold, the “fold change, CXCR4 mRNA (CEM Treated vs Non-Treated)” value ([3]; FIG. 2D, NT gRNA, 25 nM, 48 hrs) was 0.91 fold and the “fold change, CXCR4 mRNA (CEM Treated vs Non-Treated)” value ([3]; FIG. 2D, NT gRNA, 50 nM, 48 hrs) was 1.18 fold. For the same compound, the “activation of CXCR4 mRNA expression” value ([3]; FIG. 2D, all concentrations tested (1-50 nM), 48 hours) was “no significant activation”, the “concentration at which significant GFP activation was first achieved” value ([4]; FIG. 1E, FKBP* system, TRE3G gRNA, 48 hours) was 50 nM and the “fold change, GFP (Treated vs Non-Treated)” value ([4]; FIG. 1E, TRE3G gRNA, 0.25 nM, 48 hours) was 1.1 fold. For the same compound, the “fold change, GFP (Treated vs Non-Treated)” value ([4]; FIG. 1E, TRE3G gRNA, 0.5 nM, 48 hours) was 1.1 fold, the “fold change, GFP (Treated vs Non-Treated)” value ([4]; FIG. 1E, TRE3G gRNA, 0.75 nM, 48 hours) was 1.1 fold and the “fold change, GFP (Treated vs Non-Treated)” value ([4]; FIG. 1E, TRE3G gRNA, 1 nM, 48 hours) was 1.1 fold. For the same compound, the “fold change, GFP (Treated vs Non-Treated)” value ([4]; FIG. 1E, TRE3G gRNA, 2.5 nM, 48 hours) was 1.2 fold, the “fold change, GFP (Treated vs Non-Treated)” value ([4]; FIG. 1E, TRE3G gRNA, 5 nM, 48 hours) was 1.1 fold and the “fold change, GFP (Treated vs Non-Treated)” value ([4]; FIG. 1E, TRE3G gRNA, 7.5 nM, 48 hours) was 1.1 fold. The “fold change, GFP (Treated vs Non-Treated)” value ([4]; FIG. 1E, TRE3G gRNA, 10 nM, 48 hours) was 1.2 fold, the “fold change, GFP (Treated vs Non-Treated)” value ([4]; FIG. 1E, TRE3G gRNA, 25 nM, 48 hours) was 1.6 fold and the “fold change, GFP (Treated vs Non-Treated)” value ([4]; FIG. 1E, TRE3G gRNA, 50 nM, 48 hours) was 5.2 fold. For the same compound, the “fold change, GFP (Treated vs Non-Treated)” value ([4]; FIG. 1E, TRE3G gRNA, 75 nM, 48 hours) was 7.8 fold, the “fold change, GFP (Treated vs Non-Treated)” value ([4]; FIG. 1E, TRE3G gRNA, 100 nM, 48 hours) was 9.7 fold and the “fold change, GFP” value ([4]; 0.25 nM) was 1.1 fold. For the same compound, the “fold change, GFP” value ([4]; 0.5 nM) was 1.1 fold, the “fold change, GFP” value ([4]; 0.75 nM) was 1.0 fold and the “fold change, GFP” value ([4]; 1 nM) was 1.0 fold. For the same compound, the “fold change, GFP” value ([4]; 2.5 nM) was 1.1 fold, the “fold change, GFP” value ([4]; 5 nM) was 1.0 fold and the “fold change, GFP” value ([4]; 7.5 nM) was 1.0 fold. The “fold change, GFP” value ([4]; 10 nM) was 1.0 fold, the “fold change, GFP” value ([4]; 25 nM) was 1.0 fold and the “fold change, GFP” value ([4]; 50 nM) was 1.0 fold. For the same compound, the “fold change, GFP” value ([4]; 75 nM) was 1.0 fold, the “fold change, GFP” value ([4]; 100 nM) was 1.0 fold and the “luminescence, fold change compared to no treatment” value [5] was “dose dependent increase in luminscence”.
